Assay [1] deals with Aβ production in Chinese hamster ovary cells that over-express human APP695 with the London and Swedish mutations. Nature of the assay: Cellular Aβ IC50 determination (Aβ40 sandwich ELISA). The assay is classed as cell-based. The following applies: Cricetulus griseus; cellular Aβ production; read-out: IC50. Summed up: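 Aβ40 in media quantified by sandwich ELISA, normalized to control incubations and fitted with a 4-parameter IC50 model. Compounds dosed to a final concentration near 4 μM (0.4% DMSO) on CHO cells expressing human APP695 (London and Swedish mutants) seeded at 10% confluency.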

In a further assay the target is memapsin 2 (Homo sapiens, UniProt P56817). Nature of the assay: Inhibition of memapsin 2 beta-secretase activity (fluorogenic substrate FS-2). The assay is classed as biochemical. As to conditions: memapsin 2, pH 4, 37° C., read-out: M2Ki. In short, it runs like this: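 Kinetic fluorogenic assay: hydrolysis of the MCA/DNP-labelled APP Swedish-variant peptide FS-2 monitored as fluorescence rise at 37° C, pH 4, after 20 min enzyme–compound preincubation. Relative rates fitted with a tight-binding inhibitor model.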

Where two headings read alike, the source gives them in different places. A value given as a limit tells only on which side of the number the result lay.

memapsin 2, sequence (P56817 46-501): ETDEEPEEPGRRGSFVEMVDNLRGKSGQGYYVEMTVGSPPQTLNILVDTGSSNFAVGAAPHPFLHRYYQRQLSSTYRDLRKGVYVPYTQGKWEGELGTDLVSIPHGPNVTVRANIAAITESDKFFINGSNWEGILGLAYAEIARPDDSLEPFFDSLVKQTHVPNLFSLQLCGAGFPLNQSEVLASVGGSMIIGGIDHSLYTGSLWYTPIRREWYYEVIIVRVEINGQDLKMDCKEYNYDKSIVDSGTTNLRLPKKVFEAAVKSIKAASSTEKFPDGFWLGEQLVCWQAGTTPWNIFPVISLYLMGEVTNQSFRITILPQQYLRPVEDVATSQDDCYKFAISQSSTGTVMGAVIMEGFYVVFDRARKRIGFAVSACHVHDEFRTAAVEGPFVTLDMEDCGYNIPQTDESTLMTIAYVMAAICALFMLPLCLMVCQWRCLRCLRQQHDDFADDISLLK

As for `COc1cccc(CNC[C@@H](O)[C@H](Cc2ccccc2)NC(=O)c2cc(C(=O)N(C)Cc3nc(C)cs3)cc(-c3ccccc3OC)c2)c1` [Compound 210, N3-((2S,3R)-3-hydroxy-4-(3-methoxybenzylamino)-1-phenylbutan-2-yl)-2′-methoxy-N5-methyl-N5-((4-methylthiazol-2-yl)methyl)biphenyl-3,5-dicarboxamide], the concentration for half-maximal inhibition (IC50) in assay [1] is under 1000 nM. On memapsin 2 (fluorogenic substrate FS-2), the Ki was under 300 nM.
`COc1cc(CNC[C@@H](O)[C@H](Cc2ccccc2)NC(=O)c2cccc(C(=O)N(C)Cc3nc(C)cs3)c2)nc(N)n1` [Compound 207, N1-((2S,3R)-4-((2-amino-6-methoxypyrimidin-4-yl)methylamino)-3-hydroxy-1-phenylbutan-2-yl)-N3-methyl-N3-((4-methylthiazol-2-yl)methyl)isophthalamide]: the IC50 in assay [1] is over 5000 nM. Besides, the Ki on memapsin 2 (20 minutes pre-incubation) lay in the range of 301 to 500 nM.
For `CC(C)c1cncc(CNC[C@@H](O)[C@H](Cc2ccccc2)NC(=O)c2cc(C(=O)N[C@H](C)c3ccccc3)cc(-c3ncco3)c2)c1` [Compound 211, N1-((2S,3R)-3-hydroxy-4-((5-isopropylpyridin-3-yl)methylamino)-1-phenylbutan-2-yl)-5-(oxazol-2-yl)-N3-((R)-1-phenylethyl)isophthalamide], the IC50 in assay [1] was under 1000 nM. In addition, the Ki at memapsin 2 (fluorogenic substrate FS-2) is under 300 nM.
For the molecule `CC(=O)Nc1cc(CNC[C@@H](O)[C@H](Cc2ccccc2)NC(=O)c2cccc(C(=O)N(C)Cc3nc(C)cs3)c2)cc(C(C)C)c1` [Compound 193, N1-((2S,3R)-4-(3-acetamido-5-isopropylbenzylamino)-3-hydroxy-1-phenylbutan-2-yl)-N3-methyl-N3-((4-methylthiazol-2-yl)methyl)isophthalamide], in assay [1], the IC50 was under 1000 nM. The Ki at memapsin 2 (20 minutes pre-incubation) is under 300 nM.
For `Cc1csc(CN(C)C(=O)c2cc(C(=O)N[C@@H](Cc3ccccc3)[C@H](O)CNCc3cncc(C(C)C)c3)cc(-n3cccc3)c2)n1` [Compound 239, N1-((2S,3R)-3-hydroxy-4-((5-isopropylpyridin-3-yl)methylamino)-1-phenylbutan-2-yl)-N3-methyl-N3-((4-methylthiazol-2-yl)methyl)-5-(1H-pyrrol-1-yl)isophthalamide], in assay [1], the IC50 is under 1000 nM. For the same molecule, at memapsin 2 (fluorogenic substrate FS-2), the Ki was under 300 nM.
Turning to `Cc1csc(CN(C)C(=O)c2cccc(C(=O)N[C@@H](Cc3ccccc3)[C@H](O)CNCc3cc(NC(=O)OCc4ccccc4)cc(C(C)C)c3)c2)n1` [Compound 74, benzyl 3-(((2R,3S)-2-hydroxy-3-(3-(methyl((4-methylthiazol-2-yl)methyl)carbamoyl)benzamido)-4-phenylbutylamino)methyl)-5-isopropylphenylcarbamate], the IC50 in assay [1] is under 1000 nM. Also, at memapsin 2 (20 minutes pre-incubation), the Ki is under 300 nM.
The matching figures for `Cc1csc(CN(C)C(=O)c2cccc(C(=O)N[C@@H](Cc3ccccc3)[C@H](O)CNCc3cccc(O)c3)c2)n1` [Compound 73, N1-((2S,3R)-3-hydroxy-4-(3-hydroxybenzylamino)-1-phenylbutan-2-yl)-N3-methyl-N3-((4-methylthiazol-2-yl)methyl)isophthalamide]: over 5000 nM and over 501 nM.
For the molecule `Cc1csc(CN(C)C(=O)c2cc(C(=O)N[C@@H](Cc3ccccc3)[C@H](O)CNCc3cncc(C(C)(F)F)c3)cc(C(F)F)c2)n1` [Compound 245, N1-((2S,3R)-4-((5-(1,1-difluoroethyl)pyridin-3-yl)methylamino)-3-hydroxy-1-phenylbutan-2-yl)-5-(difluoromethyl)-N3-methyl-N3-((4-methylthiazol-2-yl)methyl)isophthalamide], the IC50 in assay [1] is under 1000 nM. Also, the Ki on memapsin 2 (fluorogenic substrate FS-2) is under 300 nM.
For the molecule `CN(Cc1nc(CF)cs1)C(=O)c1cccc(C(=O)N[C@@H](Cc2ccccc2)[C@H](O)CNCc2cncc(C(F)(F)F)c2)c1` [Compound 280, N1-((4-(fluoromethyl)thiazol-2-yl)methyl)-N3-((2S,3R)-3-hydroxy-1-phenyl-4-((5-(trifluoromethyl)pyridin-3-yl)methylamino)butan-2-yl)-N1-methylisophthalamide], the half-maximal inhibitory concentration (IC50) in assay [1] is under 1000 nM. The Ki on memapsin 2 (fluorogenic substrate FS-2) was under 300 nM.
As to `Cc1csc(CN(C)C(=O)c2cccc(C(=O)N[C@@H](Cc3ccccc3)[C@H](O)CNCc3cnn(C(C)(C)C)c3C)c2)n1` [Compound 118, N1-((2S,3R)-4-((1-tert-butyl-5-methyl-1H-pyrazol-4-yl)methylamino)-3-hydroxy-1-phenylbutan-2-yl)-N3-methyl-N3-((4-methylthiazol-2-yl)methyl)isophthalamide], the IC50 in assay [1] was 1000 to 5000 nM. At memapsin 2 (20 minutes pre-incubation), the Ki is over 501 nM.
On to `Cc1csc(CN(C)C(=O)c2cc(C(=O)N[C@@H](Cc3ccccc3)[C@H](O)CNCc3cncc(C(C)C)c3)cc(N3CCC(O)C3)c2)n1` (stereo partly drawn) [Compound 242, N1-((2S,3R)-3-hydroxy-4-((5-isopropylpyridin-3-yl)methylamino)-1-phenylbutan-2-yl)-5-(3-hydroxypyrrolidin-1-yl)-N3-methyl-N3-((4-methylthiazol-2-yl)methyl)isophthalamide], for which the concentration for half-maximal inhibition (IC50) in assay [1] was under 1000 nM. For the same molecule, on memapsin 2 (fluorogenic substrate FS-2), the Ki was under 300 nM.
The matching figures for `Cc1csc(CN(C)C(=O)c2cccc(C(=O)N[C@@H](Cc3ccccc3)[C@H](O)CNCc3cncc(Cl)c3)c2)n1` [Compound 216, N1-((2S,3R)-4-((5-chloropyridin-3-yl)methylamino)-3-hydroxy-1-phenylbutan-2-yl)-N3-methyl-N3-((4-methylthiazol-2-yl)methyl)isophthalamide]: under 1000 nM and under 300 nM.
The matching figures for `Cc1csc(CN(C)C(=O)c2cc(C(=O)N[C@@H](Cc3ccccc3)[C@H](O)CNCc3cncc(C(C)C)c3)cc(N3CCCCC3)c2)n1` [Compound 231, N1-((2S,3R)-3-hydroxy-4-((5-isopropylpyridin-3-yl)methylamino)-1-phenylbutan-2-yl)-N3-methyl-N3-((4-methylthiazol-2-yl)methyl)-5-(piperidin-1-yl)isophthalamide]: over 5000 nM and under 300 nM.
On to `COc1cccc(CNC[C@@H](O)[C@H](Cc2ccccc2)NC(=O)c2cc(C(=O)NCCO)cc(C(=O)N(C)Cc3nc(C)cs3)c2)c1` [Compound 44, N1-((2S,3R)-3-hydroxy-4-(3-methoxybenzylamino)-1-phenylbutan-2-yl)-N3-(2-hydroxyethyl)-N5-methyl-N5-((4-methylthiazol-2-yl)methyl)benzene-1,3,5-tricarboxamide], for which the IC50 in assay [1] was under 1000 nM. For the same molecule, the Ki on memapsin 2 (20 minutes pre-incubation) was under 300 nM.
Turning to `Cc1csc(CN(C)C(=O)c2cccc(C(=O)N[C@@H](Cc3ccccc3)[C@H](O)CNCc3cc(C(C)C)cc(N(C)S(C)(=O)=O)c3)c2)n1` [Compound 146, N1-((2S,3R)-3-hydroxy-4-(3-isopropyl-5-(N-methylmethylsulfonamido)benzylamino)-1-phenylbutan-2-yl)-N3-methyl-N3-((4-methylthiazol-2-yl)methyl)isophthalamide], the IC50 in assay [1] was under 1000 nM. The Ki on memapsin 2 (20 minutes pre-incubation) is under 300 nM.
The matching figures for `Cc1csc(CN(C(=O)c2cccc(C(=O)N[C@@H](Cc3ccccc3)[C@H](O)CNCc3cccc(OC(F)(F)F)c3)c2)C2CC2)n1` [Compound 51, N1-cyclopropyl-N3-((2S,3R)-3-hydroxy-1-phenyl-4-(3-(trifluoromethoxy)benzylamino)butan-2-yl)-N1-((4-methylthiazol-2-yl)methyl)isophthalamide]: under 1000 nM and under 300 nM.
The matching figures for `Cc1csc(CN(C)C(=O)c2cc(C(=O)N[C@@H](Cc3ccccc3)[C@H](O)CNCc3cncc(C(C)C)c3)cc(C(F)F)c2)n1` [Compound 204, 5-(difluoromethyl)-N1-((2S,3R)-3-hydroxy-4-((5-isopropylpyridin-3-yl)methylamino)-1-phenylbutan-2-yl)-N3-methyl-N3-((4-methylthiazol-2-yl)methyl)isophthalamide]: under 1000 nM and under 300 nM.
The matching figures for `Cc1cc(C(=O)N[C@@H](Cc2ccccc2)[C@H](O)CNCc2ccnc(C(C)C)c2)cc(C(=O)N(C)Cc2nc(C)cs2)c1` [Compound 60, N1-((2S,3R)-3-hydroxy-4-((2-isopropylpyridin-4-yl)methylamino)-1-phenylbutan-2-yl)-N3,5-dimethyl-N3-((4-methylthiazol-2-yl)methyl)isophthalamide]: under 1000 nM and under 300 nM.
As for `C[C@@H](NC(=O)c1cc(C(=O)N[C@@H](Cc2ccccc2)[C@H](O)CNCc2cccc(C(F)F)c2)cc(N(C)S(C)(=O)=O)c1)c1ccccc1` [Compound 142, N1-((2S,3R)-4-(3-(difluoromethyl)benzylamino)-3-hydroxy-1-phenylbutan-2-yl)-5-(N-methylmethylsulfonamido)-N3-((R)-1-phenylethyl)isophthalamide], the concentration for half-maximal inhibition (IC50) in assay [1] is under 1000 nM. The Ki on memapsin 2 (20 minutes pre-incubation) is under 300 nM.
In the case of `COc1cccc([C@@H](C)NC[C@@H](O)[C@H](Cc2ccccc2)NC(=O)c2cc(C(=O)N[C@H](C)c3ccccc3)cc(N(C)S(C)(=O)=O)c2)c1` [Compound 201, N1-((2S,3R)-3-hydroxy-4-((R)-1-(3-methoxyphenyl)ethylamino)-1-phenylbutan-2-yl)-5-(N-methylmethylsulfonamido)-N3-((R)-1-phenylethyl)isophthalamide], the 50% inhibitory concentration (IC50) in assay [1] is under 1000 nM. For the same molecule, the Ki at memapsin 2 (20 minutes pre-incubation) was under 300 nM.
The matching figures for `Cc1csc(CN(C)C(=O)c2cccc(C(=O)N[C@@H](Cc3ccccc3)[C@H](O)CNCc3cc(C(C)C)cnc3F)c2)n1` [Compound 56, N1-((2S,3R)-4-((2-fluoro-5-isopropylpyridin-3-yl)methylamino)-3-hydroxy-1-phenylbutan-2-yl)-N3-methyl-N3-((4-methylthiazol-2-yl)methyl)isophthalamide]: under 1000 nM and under 300 nM.

By IC50 is commonly meant the midpoint of a concentration-inhibition curve.

The values are drawn from US20100286145A1, “ISOPHTHALAMIDE DERIVATIVES INHIBITING BETA-SECRETASE ACTIVITY” (CoMentis, Inc., priority 2007, published 2010).
